Results from patent publication US20060111341A1, “Use of galanthamine and the derivatives thereof in the production of medicaments” (priority 2003, published 2006).

What was measured:
[1] = target: Acetylcholinesterase (Homo sapiens, UniProt P22303); experiment: biochemical
[2] = target: Butyrylcholinesterase (Homo sapiens, UniProt P06276); experiment: biochemical
Chain of Butyrylcholinesterase (P06276 29-602): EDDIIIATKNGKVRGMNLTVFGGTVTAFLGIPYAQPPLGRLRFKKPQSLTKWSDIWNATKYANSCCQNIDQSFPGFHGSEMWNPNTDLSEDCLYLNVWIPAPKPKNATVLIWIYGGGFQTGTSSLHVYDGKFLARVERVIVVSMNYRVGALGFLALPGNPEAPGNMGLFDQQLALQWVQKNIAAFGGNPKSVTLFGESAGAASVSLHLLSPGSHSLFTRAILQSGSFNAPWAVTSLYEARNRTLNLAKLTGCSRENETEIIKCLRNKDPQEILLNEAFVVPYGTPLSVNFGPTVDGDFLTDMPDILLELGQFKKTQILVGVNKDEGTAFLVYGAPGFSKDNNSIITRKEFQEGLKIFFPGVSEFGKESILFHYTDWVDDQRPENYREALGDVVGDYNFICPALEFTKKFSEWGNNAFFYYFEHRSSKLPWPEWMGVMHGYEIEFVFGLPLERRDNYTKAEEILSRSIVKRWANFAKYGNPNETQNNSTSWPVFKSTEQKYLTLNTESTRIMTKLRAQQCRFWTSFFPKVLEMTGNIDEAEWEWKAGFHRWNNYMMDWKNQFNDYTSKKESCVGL

Chain of Acetylcholinesterase (P22303 32-614): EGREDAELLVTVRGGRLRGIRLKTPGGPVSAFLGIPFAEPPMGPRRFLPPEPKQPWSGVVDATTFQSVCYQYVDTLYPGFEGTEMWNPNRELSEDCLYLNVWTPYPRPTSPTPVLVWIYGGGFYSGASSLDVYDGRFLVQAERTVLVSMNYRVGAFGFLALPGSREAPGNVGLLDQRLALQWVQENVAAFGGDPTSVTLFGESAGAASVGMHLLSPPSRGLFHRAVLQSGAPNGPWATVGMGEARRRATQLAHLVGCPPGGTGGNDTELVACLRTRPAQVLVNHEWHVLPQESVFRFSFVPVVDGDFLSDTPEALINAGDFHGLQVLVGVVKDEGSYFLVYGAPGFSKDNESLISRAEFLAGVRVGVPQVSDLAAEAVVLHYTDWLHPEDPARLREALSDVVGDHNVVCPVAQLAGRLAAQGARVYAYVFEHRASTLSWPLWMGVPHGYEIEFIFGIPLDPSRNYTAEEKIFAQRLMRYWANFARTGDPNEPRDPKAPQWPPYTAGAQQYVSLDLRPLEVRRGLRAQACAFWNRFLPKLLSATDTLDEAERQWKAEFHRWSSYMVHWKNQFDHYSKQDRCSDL

COc1ccc2c3c1OC1C[C@@H](O)C=CC31CCN(CCC(=O)NC(C)(C)C)C2 (mixture of isomers) [Nr 101]
IC50 [1]: 45 µM
IC50 [2]: 26 µM

COc1ccc2c3c1O[C@@H]1C[C@H](O)C=C[C@]31CCN(C(=O)NC(C)C)C2 [Nr 126]
IC50 [1]: 8 µM
IC50 [2]: 90 µM

COc1ccc2c3c1O[C@H]1C[C@@H](O)C=C[C@@]31CC[N+](C)=C2 [Nr 127]
IC50 [1]: 0.3 µM
IC50 [2]: 1.5 µM

CC(C)NC(=O)N1CC[C@@]23C=C[C@H](O)C[C@@H]2Oc2c(O)ccc(c23)C1 [Nr 130]
IC50 [1]: 6.3 µM
IC50 [2]: 60 µM

C#CCN1CCC23C=C[C@H](O)CC2Oc2c(OC)cc(Br)c(c23)C1 (mixture of isomers) [Nr 23]
IC50 [1]: 63 µM
IC50 [2]: 10 µM

COc1cc(C)c2c3c1OC1C[C@H](O)C=CC31CC[N+](C)(Cc1ccccc1)C2 (mixture of isomers) [Nr 106]
IC50 [1]: > 100 µM
IC50 [2]: 3 µM

COc1ccc2c3c1OC1C/C(=N/NC(N)=O)C=CC31CCN(C)C2 (racemic) [Nr 32]
IC50 [1]: > 100 µM
IC50 [2]: 20 µM

COc1ccc2c3c1O[C@H]1C[C@@H](O)C=C[C@@]31CCN(C(=O)Nc1ccccc1C(F)(F)F)C2 [Nr 111]
IC50 [1]: 30 µM
IC50 [2]: > 100 µM

CCN(CC)c1nccc(N2CCC34C=C[C@H](O)CC3Oc3c(OC)ccc(c34)C2)n1 (mixture of isomers) [Nr 97]
IC50 [1]: 25 µM
IC50 [2]: > 100 µM

COc1cc(Br)c2c3c1O[C@H]1C[C@@H](O)C=C[C@@]31CCNC2 [Nr 29]
IC50 [1]: 3 µM

COc1ccc2c3c1OC1C[C@@H](O)C=CC31CCN(C(=O)NC(C)(C)C)C2 (mixture of isomers) [Nr 82]
IC50 [1]: 4.8 µM
IC50 [2]: > 100 µM

COc1ccc2c3c1O[C@H]1C[C@@H](O)C=C[C@@]31CC[N+](C)(CCCCl)C2 (stereo partly shown) [Nr 59]
IC50 [1]: 0.35 µM

COc1ccc2c3c1O[C@@H]1C[C@H](O)C=C[C@]31CCN(CCCN(C)C)C2 [Nr 151]
IC50 [2]: 67 µM

COc1ccc2c(c1)CC(CCCCN1CC[C@@]34C=C[C@H](O)C[C@@H]3Oc3c(OC)ccc(c34)C1)C2=O (stereo partly shown) [Nr 157]
IC50 [1]: 0.022 µM
IC50 [2]: 0.8 µM

COc1ccc2c3c1O[C@H]1C[C@@H](O)C=C[C@@]31CCN(c1cccs1)C2 [Nr 124]
IC50 [1]: 4 µM
IC50 [2]: 0.54 µM

COc1cc(Br)c2c3c1OC1C[C@@H](O)C=CC31CCN(C(=O)CCN1CCCCC1)C2 (mixture of isomers) [Nr 43]
IC50 [1]: 0.2 µM

COc1cc(Br)c2c(c1O)C13C=C[C@@H](O)CC1N(CC3)C2 (mixture of isomers) [Nr 14]
IC50 [1]: > 100 µM
IC50 [2]: 18 µM

C#CC[N+]1(C)CCC23C=C[C@@H](O)CC2Oc2c(OC)cc(C)c(c23)C1 (mixture of isomers) [Nr 103]
IC50 [1]: 59 µM
IC50 [2]: 45 µM

COc1ccc2c3c1O[C@H]1C[C@@H](O)C=C[C@@]31CC[N+](C)(CCN1CCCCC1)C2 (stereo partly shown) [Nr 52]
IC50 [1]: 4 µM

C=C(C)C[N+]1(C)CCC23C=C[C@@H](O)CC2Oc2c(OC)cc(C)c(c23)C1 (mixture of isomers) [Nr 102]
IC50 [1]: > 100 µM
IC50 [2]: 95 µM

CCCCCCN1CCC23C=C[C@H](O)CC2Oc2c(OC)cc(Br)c(c23)C1 (mixture of isomers) [Nr 15]
IC50 [1]: 40 µM
IC50 [2]: 0.45 µM

COc1ccc2c3c1OC1C[C@@H](O)C=CC31CCN(C(=O)Nc1ccc3ccccc3c1)C2 (mixture of isomers) [Nr 88]
IC50 [1]: 36 µM
IC50 [2]: > 100 µM

CCOC(=O)/C=C/N1CCC23C=C[C@H](O)CC2Oc2c(OC)ccc(c23)C1 (mixture of isomers) [Nr 110]
IC50 [1]: 50 µM
IC50 [2]: > 100 µM

COc1ccc2c3c1O[C@H]1C[C@@H](O)C=C[C@@]31CCN(C(=O)OC(C)(C)C)C2 [Nr 139]
IC50 [1]: 23 µM
IC50 [2]: > 100 µM

C=CCN1CCC23C=C[C@H](O)CC2Oc2c(OC)cc(Br)c(c23)C1 (mixture of isomers) [Nr 35]
IC50 [1]: > 100 µM
IC50 [2]: 2.6 µM

COc1ccc2c3c1OC1C[C@@H](O)C=CC31CCN(C=C(C#N)C#N)C2 (mixture of isomers) [Nr 80]
IC50 [1]: 28.5 µM
IC50 [2]: > 100 µM

COc1cc(Br)c2c3c1OC1C[C@@H](O)C=CC31CCN(C(=O)NC(C)C)C2 (mixture of isomers) [Nr 70]
IC50 [1]: > 100 µM
IC50 [2]: 25 µM

C=CCCC(=O)N1CC[C@@]23C=C[C@H](O)C[C@@H]2Oc2c(OC)ccc(c23)C1 [Nr 147]
IC50 [1]: 8.4 µM
IC50 [2]: 2.6 µM

COc1ccc2c3c1O[C@H]1C[C@@H](O)C=C[C@@]31CCN(CC1CC1)C2 [Nr 131]
IC50 [1]: 0.7 µM
IC50 [2]: 1.2 µM

COc1ccc2c3c1O[C@H]1C[C@@H](OC(=O)N[C@H](C)c4ccccc4)C=C[C@@]31CCN(C)C2 [Nr 2]
IC50 [2]: 70 µM

COc1ccc2c3c1O[C@H]1C[C@@H](O)C=C[C@@]31CC[N+](C)(CC=C(C)C)C2 (stereo partly shown) [Nr 54]
IC50 [1]: 0.2 µM
IC50 [2]: 0.21 µM

COc1ccc2c3c1O[C@H]1C[C@H](OC(=O)CNC(=O)OC(C)(C)C)C=C[C@@]31CCN(C)C2 [Nr 6]
IC50 [1]: 45 µM

COc1ccc2c3c1O[C@H]1C[C@@H](O)C=C[C@@]31CCN(CCCCCN1C(=O)c3ccccc3S1(=O)=O)C2 [Nr 163]
IC50 [1]: 0.022 µM

COc1ccc2c3c1OC1C[C@@H](O)C=CC31CCN(CCN1CCOCC1)C2 (mixture of isomers) [Nr 36]
IC50 [2]: 7 µM

CCOC(=O)CN1CCC23C=C[C@H](O)CC2Oc2c(OC)ccc(c23)C1 (mixture of isomers) [Nr 100]
IC50 [2]: 90 µM

COc1ccc2c3c1OC1C[C@@H](O)C=CC31CCN(CCC#N)C2 (mixture of isomers) [Nr 77]
IC50 [2]: > 100 µM

COc1cc(Br)c2c3c1O[C@H]1C[C@@H](O)C=C[C@@]31CCN(C)C2 [Nr 30]
IC50 [1]: 4 µM

COc1ccc2c3c1OC1C/C(=N/N)C=CC31CCN(C)C2 (racemic) [Nr 28]
IC50 [1]: 40 µM

COc1ccc2c3c1O[C@H]1C[C@@H](O)C=C[C@@]31CCN(CCC(=O)OC(C)(C)C)C2 [Nr 116]
IC50 [2]: 4 µM

COc1cc(C)c2c3c1O[C@H]1C[C@@H](O)C=C[C@@]31CCN(C)C2C (stereo partly shown) [Nr 146]
IC50 [1]: 83 µM

CCNC(=O)N1CCC23C=C[C@H](O)CC2Oc2c(OC)ccc(c23)C1 (mixture of isomers) [Nr 87]
IC50 [2]: > 100 µM

COc1ccc2c3c1O[C@H]1C[C@@H](O)C=C[C@@]31CC[N+](C)(CCN(C)C)C2 (stereo partly shown) [Nr 8]
IC50 [1]: 8 µM

COc1ccc2c3c1O[C@@H]1C[C@H](OC(=O)N[C@H](C)c4ccccc4)C=C[C@]31CCN(C)C2 [Nr 180]
IC50 [1]: 85 µM

COc1ccc2c3c1O[C@@H]1C[C@H](OC(=S)Nc4ccccc4)C=C[C@]31CCN(C)C2 [Nr 181]
IC50 [1]: 35 µM

COc1ccc2c3c1O[C@H]1C[C@@H](O)C=C[C@@]31CCN(CCCN(C)C)C2 (racemic) [Nr 74]
IC50 [2]: 10 µM

COc1ccc2c3c1O[C@H]1C[C@@H](O)C=C[C@@]31CCN(CCCN1CCCCC1)C2 [Nr 162]
IC50 [1]: 0.36 µM

CCOC(=O)CN1CCC23C=C[C@H](O)CC2Oc2c(OC)cc(Br)c(c23)C1 (mixture of isomers) [Nr 26]
IC50 [1]: 20 µM

COc1ccc2c3c1O[C@H]1C[C@@H](O)C=C[C@]31CC[N+](C)(CCN1CCOCC1)C2 (stereo partly shown) [Nr 199]
IC50 [1]: 5 µM

COc1ccc2c3c1O[C@H]1C[C@@H](O)C=C[C@@]31CC[N+](C)(CCCN1CCCCC1)C2 (stereo partly shown) [Nr 4]
IC50 [1]: 6 µM

COc1ccc2c3c1O[C@H]1C[C@@H](OC(=O)N[C@@H](C)c4ccccc4)C=C[C@@]31CCN(C)C2 [Nr 3]
IC50 [2]: 75 µM

COc1cc2c(cc1OC)C(=O)C(CCCCCN1CC[C@@]34C=C[C@H](O)C[C@@H]3Oc3c(OC)ccc(c34)C1)C2 (stereo partly shown) [Nr 166]
IC50 [1]: 0.023 µM

COc1ccc2c3c1OC1C[C@@H](O)C=CC31CCN(C(=O)CCl)C2 (mixture of isomers) [Nr 98]
IC50 [2]: 20 µM

COc1ccc2c3c1O[C@H]1C[C@@H](O)C=C[C@@]31CCN(CCCCCCN1C(=O)c3ccccc3S1(=O)=O)C2 [Nr 164]
IC50 [1]: 0.043 µM

COc1cc(Br)c2c(c1O)C13CCC(O)CC1N(CC3)C2 (racemic) [Nr 205]
IC50 [1]: 50 µM

COc1ccc2c3c1O[C@@H]1C[C@H](O)C=C[C@]31CCN(C(=O)NC(C)(C)C)C2 [Nr 125]
IC50 [1]: 93 µM

CCOC(=O)CCN1CCC23C=C[C@H](O)CC2Oc2c(OC)ccc(c23)C1 (mixture of isomers) [Nr 78]
IC50 [2]: 17 µM

COc1cc(Br)c2c3c1OC1C[C@@H](O)C=CC31CCN(CCN1CCOCC1)C2 (mixture of isomers) [Nr 25]
IC50 [1]: 3 µM

COc1ccc2c3c1O[C@H]1C[C@@H](O)C=C[C@@]31CCN(C)[C@@H]2C#N [Nr 132]
IC50 [1]: 1.2 µM

C#CCN1CC[C@@]23C=C[C@H](O)C[C@@H]2Oc2c(OC)ccc(c23)C1 [Nr 156]
IC50 [1]: 32 µM

COc1ccc2c3c1O[C@H]1C[C@@H](O)C=C[C@@]31CCN(C(=O)OCC1c3ccccc3-c3ccccc31)C2 [Nr 134]
IC50 [1]: 40 µM

COc1ccc2c3c1O[C@H]1C[C@@H](O)C=C[C@@]31CCN(CC#N)C2 [Nr 136]
IC50 [1]: 15 µM

COc1cc(Br)c2c3c1OC1CC(=O)C=CC31CCN(C)C2 (racemic) [Nr 11]
IC50 [1]: 50 µM

COc1ccc2c3c1O[C@H]1C[C@@H](O)C=C[C@@]31CC[N+](C)(CCN1CCCC1)C2 (stereo partly shown) [Nr 7]
IC50 [1]: 2 µM

COc1cc(Br)c2c3c1OC1C[C@@H](O)C=CC31CCNC2 (mixture of isomers) [Nr 93]
IC50 [1]: 5 µM

COc1ccc2c3c1OC1C[C@@H](O)C=CC31CCN(C(=O)NC1CCCCC1)C2 (mixture of isomers) [Nr 83]
IC50 [2]: > 100 µM

COc1cc(Br)c2c3c1O[C@@H]1C[C@H](O)C=C[C@]31CCN(CCCN1CCN(C)CC1)C2 [Nr 273]
IC50 [2]: 31 µM

COc1cc(Br)c2c3c1O[C@@H]1C[C@H](O)C=C[C@]31CCN(C(=O)CN1CCN(C)CC1)C2 [Nr 272]
IC50 [1]: 89 µM

CCCCNC(=S)O[C@@H]1C=C[C@]23CCN(C)Cc4ccc(OC)c(c42)O[C@@H]3C1 [Nr 182]
IC50 [1]: 85 µM

COc1ccc2c3c1O[C@H]1C[C@@H](O)C=C[C@@]31CC[N+](C)(CC(N)=O)C2 (stereo partly shown) [Nr 51]
IC50 [1]: 3.1 µM

COc1ccc2c(c1)CC(CCCCN1CC[C@@]34C=C[C@H](O)C[C@@H]3Oc3c(OC)ccc(c34)C1)C2=O (stereo partly shown) [Nr 168]
IC50 [1]: 0.024 µM

COc1ccc2c3c1O[C@H]1C[C@@H](O)C=C[C@@]31CCN(CCCCN1C(=O)c3ccccc3S1(=O)=O)C2 [Nr 165]
IC50 [1]: 0.027 µM

COc1cc(Br)c2c(c1O)C13C=CC(=O)CC1N(CC3)C2 (racemic) [Nr 13]
IC50 [1]: 5 µM
